Experimental data as given in patent publication US9296778B2, “3′,5′-cyclic phosphate prodrugs for HCV infection” (Idenix Pharmaceuticals, Inc., priority 2012, dated 2016).

Columns and labels:
HCV genotype 1b replicon = assay: HCV Replicon Assay; format: cell-based; conditions: Hepatitis C virus, 72 h, read-out: HCV Replicon EC50
How it was run: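 Zluc Huh-7 cells with HCV genotype 1b replicon and luciferase reporter treated with 5-fold dilutions (100 μM to 0.0000512 μM final) in duplicate, or at 1 and 10 μM. Luminescence read with ONE-glo; EC50 from dose-response fits, or % inhibition at the fixed concentrations.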

[1] = cytotoxicity evaluation (CellTiter-Blue Cell Viability Assay); conditions: human
Huh-7 cells = assay: Release of active metabolite in Huh-7 cells; format: in vitro ADME, human; conditions: Huh-7 cells, AUC0-72
Protocol: Huh-7 cells were plated in 1 mL culture medium (DMEM, containing glucose, L-glutamine and sodium pyruvate, 10% FBS, 100 IU/mL penicillin, 100 μg/mL streptomycin, 2 mM GlutaMAX, 1% MEM non-essential amino acids) at the concentration 0.8, 0.4 and 0.2 million cells per well on 6 well plates for 24, 48 and 72 hr treatment, respectively. Plated cells were incubated overnight at 37° C. in an incubator.
The following morning compounds was diluted to 20 μM from a stock solution in DMSO in fresh culture medium pre-warmed to 37° C. and 1 mL of the solution/well was added to cells. A final medium volume per well was 2.0 mL, Compound concentration in well was 10 μM and final DMSO concentration was 0.1%.
After 24, 48 or 72 hr, the medium was carefully removed and cell monolayers were washed twice with 2 mL ice-cold PBS per well. Following the last wash, all PBS was carefully removed and 1.0 mL of extraction solution (ice-cold 70% methanol) added. The plate was tightly covered with Parafilm, plastic plate cover and Parafilm again and an intracellular content was extracted at −20° C. for 24 hr.
After 24 hr extracts were transferred into polypropylene microfuge tubes and dried on a refrigerated centrivap concentrator. Dry residues were reconstituted in 250 μL of HPLC-grade water and centrifuged at 16,000×g for 10 min. Aliquots (100 μL each) of the supernatants were transferred into a 96 well plate and internal standard (4 ng/mL final concentration) was added as the internal standard (IS) for LC-MS/MS analysis.

cathepsin A (CatA) = biological target: T1, cathepsin A (CatA) (Homo sapiens, UniProt P10619); assay: CatA hydrolysis assay; format: in vitro ADME; conditions: 100 μM compound, 37° C., 18 h
T1 construct: purchased R & D Systems (Minneapolis, Minn.)
T1 sequence (P10619 29-326 limits assumed): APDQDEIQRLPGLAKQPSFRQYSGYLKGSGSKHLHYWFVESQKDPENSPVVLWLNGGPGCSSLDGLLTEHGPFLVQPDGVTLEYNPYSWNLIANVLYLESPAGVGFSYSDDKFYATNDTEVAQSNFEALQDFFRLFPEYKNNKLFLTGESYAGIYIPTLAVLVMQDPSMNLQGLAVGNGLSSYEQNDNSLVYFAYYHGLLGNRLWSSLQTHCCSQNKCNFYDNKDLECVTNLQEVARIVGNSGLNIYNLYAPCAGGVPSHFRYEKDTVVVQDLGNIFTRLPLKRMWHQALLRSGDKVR
T1 sequence (P10619 327-480 limits assumed): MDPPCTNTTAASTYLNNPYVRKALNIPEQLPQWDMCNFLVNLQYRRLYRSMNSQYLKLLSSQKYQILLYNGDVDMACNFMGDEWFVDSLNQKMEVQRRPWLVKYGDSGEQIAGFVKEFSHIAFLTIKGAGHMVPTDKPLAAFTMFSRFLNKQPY
Protocol: CatA, cathepsin L (CatL) and CES1 were purchased from R & D Systems (Minneapolis, Minn.). Prior to the enzymatic hydrolysis reactions, CatA was activated according to the manufacturer's instruction. Briefly, CatA (0.05 μg/μL) was incubated with CatL (0.005 μg/μL) for 30 min at 37° C. in 25 mM MES pH 6.0 containing 5 mM DTT. The reaction was stopped by addition of the CatL specific inhibitor E64 (10 μM).
The CatA assay was performed at 37° C. The reaction mixture contained 25 mM MES buffer pH 6.0, 100 mM NaCl, 4 mM DTT and 100 μM of the compound. The reaction was started by addition of the activated CatA enzyme to a final concentration of 0.005 μg/μL. One hundred-μL aliquots were taken after 0.5 min, 3 hrs and 18 hrs of incubation. Reactions were stopped by mixing the sample with an equal volume of ice-cold methanol, and were loaded on a HPLC for analysis.
(§1) Samples were analyzed by HPLC using 5μ C-18, 4.6×250 mm Phenomenex® Columbus column (Phenomenex USA, CA). The mobile phase consisted of buffer A (25 mM potassium phosphate with 5 mM tetrabutylammonium dihydrogen phosphate pH 6.3) and buffer B (100% methanol).

[2] = biological target: T2, carboxylesterase 1 (CES1) (Homo sapiens, UniProt P23141); assay: CES1 hydrolysis assay; format: in vitro ADME; conditions: for CES1 hydrolysis: 100 μM compound, 37° C.
T2 construct: purchased R & D Systems (Minneapolis, Minn.)
T2 sequence (P23141 18-567): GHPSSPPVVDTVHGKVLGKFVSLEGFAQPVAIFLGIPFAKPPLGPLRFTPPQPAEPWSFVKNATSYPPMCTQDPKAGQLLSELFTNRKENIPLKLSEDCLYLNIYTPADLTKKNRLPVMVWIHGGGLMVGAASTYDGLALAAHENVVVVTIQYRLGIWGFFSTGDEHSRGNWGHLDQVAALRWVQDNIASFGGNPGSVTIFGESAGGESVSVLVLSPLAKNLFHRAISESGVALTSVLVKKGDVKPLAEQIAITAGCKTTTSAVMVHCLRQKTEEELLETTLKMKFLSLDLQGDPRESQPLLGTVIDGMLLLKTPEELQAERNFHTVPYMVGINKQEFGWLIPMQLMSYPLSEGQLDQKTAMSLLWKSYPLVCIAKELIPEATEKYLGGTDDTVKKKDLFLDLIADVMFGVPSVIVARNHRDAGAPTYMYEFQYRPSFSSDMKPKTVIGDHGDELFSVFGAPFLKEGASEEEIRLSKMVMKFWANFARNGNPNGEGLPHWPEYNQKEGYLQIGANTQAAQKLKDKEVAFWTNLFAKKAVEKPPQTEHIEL
Protocol: CES1 assay was performed at 37° C. in the reaction mixture containing 50 mM Tris/HCl buffer pH 7.5 and 100 μM of the compound. Reaction was started by addition of the CES1 to the final concentration 0.01 μg/mL. 100 μL aliquots were taken after 0.5 min, 3 hrs and 21 hrs of the incubation and the reaction was stopped by mixing with 100 μl of the ice-cold methanol prior to HPLC analysis.
as §1

genotype 1b HCV replicon = assay: genotype 1b HCV replicon-bearing Huh-7 cells (Table 5); format: cell-based
Excerpt: In vivo Z4 and Z2 appear to be effectively liver-targeted with a high liver:plasma ratio of drug metabolites. Both prodrugs are readily converted to the triphosphate (TP) metabolite in the liver of mice and monkey producing more TP than GS-7977. […] The in vitro antiviral inactivity of Z4 and Z2 is thought to reflect an inability of Huh-7 replicon cells to metabolize the prodrug moiety.

Liver TP (Table 5) = format: in vivo

| SMILES | EC50 (HCV genotype 1b replicon) | CC50 [1] | Huh-7 AUC0-72 (Huh-7 cells) | CatA hydrolysis (cathepsin A (CatA)) | hydrolysis by CES1 (in words) [2] | CES1 hydrolysis ([2]; 3 h) | CES1 hydrolysis ([2]; 21 h) | EC50 (genotype 1b HCV replicon) | Liver TP (Liver TP (Table 5)) |
| --- | --- | --- | --- | --- | --- | --- | --- | --- | --- |
| CCOc1nc(N)nc2c1ncn2[C@@H]1O[C@@H]2COP(=O)(Oc3ccc(C[C@H](NC(=O)OC)C(=O)OC(C)C)cc3)O[C@H]2[C@@]1(C)F (stereo partly drawn) [Compound 13] | < 250 nM | > 50000 nM | – | – | – | – | – | – | – |
| CC(C)OC(=O)[C@H](C)N[P@@](=O)(OC[C@H]1O[C@@H](n2ccc(=O)[nH]c2=O)[C@](C)(F)[C@@H]1O)Oc1ccccc1 [PSI-7976] | – | – | 6527 pmol * hr/10^6cells | 10% @ 18 h | preferentially hydrolyzed | 56%/3 h; | 94%/21 h | 2080 nM | 310 pmol·h/g |
